Test results: US20150368248A1, “2-SUBSTITUTED-6-BIARYLMETHYLAMINO-9-CYCLOPENTYL-9H-PURINE DERIVATIVES, USE THEREOF AS MEDICAMENTS, AND PHARMACEUTICAL COMPOSITIONS” (UNIVERZITA PALACKEHO V OLOMOUCI, priority 2013, published 2015)
Read-outs that look alike come from different tables or passages of the source.

Legend:
[1] = system: caspases-3/7 in Hep3B carcinoma cells; experiment: Caspase-3/7 activity in lysates of treated cells (Example 33); format: cell-based, human; settings: 24 h treatment, concentration of 3xIC50
Procedure: Measurements of proapoptotic properties of BP14 were based on quantification of enzymatic activities of caspases-3/7. For caspase assays, treated cells were harvested by centrifugations and homogenized in an extraction buffer (10 mM KCl, 5 mM Hepes, 1 mM EDTA, 1 mM EGTA, 0.2% CHAPS, inhibitors of proteases, pH 7.4) on ice for 20 min. The homogenates were clarified by centrifugation at 10,000 g for 20 min at 4° C., then proteins were quantified by the Bradford method and diluted to the same concentration. Lysates were then incubated for 5 h with 100 μM Ac-DEVD-AMC as substrate (Sigma-Aldrich) in an assay buffer (25 mM PIPES, 2 mM EGTA, 2 mM MgCl2, 5 mM DTT, pH 7.3). The fluorescence of the product was measured using a Fluoroskan Ascent microplate reader (Labsystems, Helsinki, Finland) at 346 nm/442 nm (ex/em).

[2] = biological target: T1, CDK5/p35 (Homo sapiens, UniProt Q00535); experiment: Kinase inhibition assay, recombinant kinase, [γ-33P]ATP; format: biochemical; settings: Table 12; read-out: IC50, CDK5/p25NCK
T1 construct: purchased ProQinase GmbH (Freiburg, Germany)

[3] = system: primary human hepatocytes (PHHs); experiment: MTT cell viability assay (Example 40); format: cell-based; settings: Hepatocyte
Procedure: Non-neoplastic tissue samples from liver resections were obtained from patients undergoing partial hepatectomy for metastatic liver tumors of colorectal cancer. Experimental procedures were performed according to the guidelines of the charitable state controlled foundation HTCR (Human Tissue and Cell Research, Regensburg, Germany), with the informed patient's consent approved by the local ethical committee of the University of Regensburg. PHHs were isolated using a modified two-step EGTA/collagenase perfusion procedure as described previously (33). Viability of isolated PHHs was determined by trypan blue exclusion and cells with a viability of more than 85% were used for further work. Cells were plated on collagen-coated plates (BD Biosciences, San Jose, USA) at a density of 1.2×10^5 cells/cm^2. The medium consisted of DMEM with 10% FCS, 2 mM L-glutamine, […], 100 U/ml penicillin and supplements as follows: 125 mU/ml insulin, 7.3 ng/ml glucagon and 0.8 μg/ml hydrocortisone. Cells were incubated at 37° C. in a humidified incubator with 5% CO2 and media were changed daily.
Cell viability was determined using the 3-(4,5 dimethylthiazol-2-yl)-2,5-diphenyltetrazolium bromide (MTT) assay. Briefly, cells were seeded in triplicates at a density of 6×10^3 cells per well. […] The absorbance was measured at 620 nm by employing a microplate reader (Asys HiTech, Salzburg, Austria). […]

[4] = system: CDK1/CDK2; experiment: Kinase inhibition assays using cell-free extracts; format: biochemical, human; settings: 0.03 μM
Procedure: Whole cell extracts were prepared by lysing Hep3B cells with a buffer containing 20 mM Tris pH 8.0, 100 mM NaCl, 1 mM EDTA and 0.5% NP-40. 100 μg of extract was used for immunoprecipitation at 4° C. for 4 hours either with 1 μg of the anti-CDK2 antibody M2 (Santa Cruz Biotechnology, Santa Cruz, USA) or with 1 μg of the anti-cyclin B1 antibody GNS1 (Santa Cruz Biotechnology, Santa Cruz, USA). The precipitated proteins were washed three times with lysis buffer followed by one wash with the kinase buffer (50 mM HEPES pH 7.5, 10 mM MgCl2 and 1 mM DTT) and subsequently resuspended in 20 μl kinase buffer containing 5 μCi [γ-^32P]ATP
(PerkinElmer, Santa Clara, USA), 1 μg histone H1 (New England Biolabs, Ipswich, USA) and the respective concentration of inhibitor. After incubation for 60 minutes at 30° C., the supernatant was boiled in sample buffer containing 60 mM Tris/HCl pH6.8, 10% Glycerol, 2% SDS, 5% β-mercaptoethanol, 0.02% Bromophenol Blue. The proteins were separated by SDS-PAGE and blotted onto nitrocellulose membrane. Thereafter, the membrane was stained with Ponceau S to check equal loading and analyzed by autoradiography.

[5] = system: Hep3B; experiment: Determination of long-term chemosensitivity (MTT); format: cell-based; settings: Homo sapiens
Procedure: (§1) Cell viability was determined using the 3-(4,5 dimethylthiazol-2-yl)-2,5-diphenyltetrazolium bromide (MTT) assay. Briefly, cells were seeded in triplicates at a density of 6×10^3 cells per well. After 24 hours, cells were incubated with drug-containing medium for 72 hours. Cells were incubated with MTT solution (5 mg/ml; Sigma, St. Louis, USA) and medium was replaced with DMSO after five hours. The absorbance was measured at 620 nm by employing a microplate reader (Asys HiTech, Salzburg, Austria). MTT assays were repeated 3 times for each drug application and untreated cells were used as reference. IC50 values were obtained by log-linear interpolation of data points and are depicted by dose-response curves using the software GraphPad Prism® 5.01.
(§2) The selection of chemoresistant cells was monitored every 6 weeks by the determination of IC50 values using the MTT assay. HCC cells showing higher IC50 values after treatment with inhibitors as compared to untreated cells are considered as chemoresistant.

[6] = system: HepG2; experiment: Determination of long-term chemosensitivity (MTT); format: cell-based; settings: Homo sapiens, read-out: IC50 for BP14, HepG2
Procedure: as §1, §2

T1 sequence (Q00535 whole entry): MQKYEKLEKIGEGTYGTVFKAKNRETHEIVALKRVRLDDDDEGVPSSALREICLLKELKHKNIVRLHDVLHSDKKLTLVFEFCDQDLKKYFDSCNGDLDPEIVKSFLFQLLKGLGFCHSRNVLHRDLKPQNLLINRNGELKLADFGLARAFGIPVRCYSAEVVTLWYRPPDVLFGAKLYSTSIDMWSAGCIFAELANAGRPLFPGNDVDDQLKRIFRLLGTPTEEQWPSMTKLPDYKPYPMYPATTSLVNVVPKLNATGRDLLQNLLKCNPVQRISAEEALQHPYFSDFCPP
T1 sequence (Q15078 whole entry partner): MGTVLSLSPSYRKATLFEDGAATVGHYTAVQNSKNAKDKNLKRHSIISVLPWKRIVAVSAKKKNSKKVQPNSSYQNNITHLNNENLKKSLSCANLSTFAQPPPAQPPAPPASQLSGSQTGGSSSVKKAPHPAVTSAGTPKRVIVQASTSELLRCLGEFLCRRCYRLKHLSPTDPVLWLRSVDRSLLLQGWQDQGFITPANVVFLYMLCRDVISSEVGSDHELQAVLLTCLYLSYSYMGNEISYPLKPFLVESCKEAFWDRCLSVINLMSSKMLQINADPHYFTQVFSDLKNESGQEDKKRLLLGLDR

With `NC1CCC(Nc2nc(NCc3ccc(-c4ccco4)nc3)c3ncn(C4CCCC4)c3n2)CC1` (centres unmarked) [BP14, N^2-(4-amino-cyclohexyl)-9-cyclopentyl-N^6-(6-furan-2-yl-pyridin-3-ylmethyl)-9H-purine-2,6-diamine] the “activity of caspase-3/7 compared with the untreated control” value [1] was “twenty-fold increase”, the IC50 [2] was 15 nM and the IC50 [3] was 20100 nM. For the same compound, the “CDK1/CDK2 activity in cell-free extracts” value [4] was “significantly reduced CDK1/CDK2 activity”, the IC50 ([5]; control, read-out: IC50 for BP14, Hep3B) was 530 nM and the IC50 ([5]; long-term exposure at 1/16 IC50, read-out: IC50 for BP14, Hep3B) was 420 nM. For the same compound, the IC50 ([5]; long-term exposure at ¼ IC50, read-out: IC50 for BP14, Hep3B) was 450 nM, the IC50 ([5]; long-term exposure at ½ IC50, read-out: IC50 for BP14, Hep3B) was 800 nM and the IC50 ([5]; long-term exposure at ⅛ IC50, read-out: IC50 for BP14, Hep3B) was 380 nM. It also gave an IC50 ([6]; HepG2, control) of 320 nM, an IC50 ([6]; HepG2, long-term exposure at 1/16 IC50) of 270 nM and an IC50 ([6]; HepG2, long-term exposure at ¼ IC50) of 450 nM. The IC50 ([6]; HepG2, long-term exposure at ½ IC50) was 590 nM and the IC50 ([6]; HepG2, long-term exposure at ⅛ IC50) was 390 nM.
